Measured values taken from patent US20210221848A1, “POLYMYXIN DERIVATIVES AND THEIR USE IN COMBINATION THERAPY TOGETHER WITH DIFFERENT ANTIBIOTICS” (priority 2014, published 2021).
Read-outs that look alike come from different tables or passages of the source.

Assays:
[1] = tested on: K. pneumoniae; assay: MIC in the presence of a fixed concentration (2 μg/mL) of Rifampicin; assay type: cell-based, Klebsiella pneumoniae; details: Rifampicin 2 μg/mL, Table 5D
Procedure: (§1) The inoculum was prepared by making a direct suspension of isolated colonies (selected from an 18-24 hour Mueller-Hinton agar plate) adjusted to the 0.5 McFarland standard. […] The assays were performed in duplicate. […] In cases where the duplicate values varied by less than 2-fold, the lower of the two values is reported. If a variation of greater than 2-fold was observed, the assay was considered non-valid. Several of the compounds were subjected to multiple tests, and where this is the case, the MIC reflects the modal value obtained.

[2] = tested on: E. coli; assay: as above; assay type: cell-based, Escherichia coli; details: Rifampicin 2 μg/mL, Table 5D
[3] = tested on: A. baumannii; assay: MIC in the presence of […] of rifampicin; assay type: cell-based, Acinetobacter baumannii; details: for MIC in combination with Rifampicin, A. baumannii ATCC BAA-747: A. baumannii ATCC BAA-747, Table 5D; for MIC in combination with Rifampicin, A. baumannii NCTC 13424: A. baumannii NCTC 13424, Table 5D
Procedure: as §1

[4] = tested on: P. aeruginosa
[5] = tested on: A. baumannii
[6] = tested on: E. coli
[7] = tested on: K. pneumoniae
[8] = tested on: E. coli strains with elevated MICs to Polymyxin B; assay: MIC against strains with elevated MICs to Polymyxin B; assay type: cell-based, Escherichia coli; details: Table 6D; for MIC E. coli 058: strain 058, elevated MIC to Polymyxin B; for MIC E. coli 059: strain 059, elevated MIC to Polymyxin B; for MIC E. coli 060: strain 060, elevated MIC to Polymyxin B; for MIC E. coli 061: strain 061, elevated MIC to Polymyxin B
How it was run: (§2)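 Values are modal MICs where compounds were tested repeatedly, otherwise the lower of duplicates agreeing within 2-fold, with greater variation rejected. Inoculum: isolated colonies from 18-24 h Mueller-Hinton agar, suspended directly to 0.5 McFarland.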

[9] = tested on: P. aeruginosa strains with elevated MICs to Polymyxin B; assay: as above; assay type: cell-based, Pseudomonas aeruginosa; details: Table 6D; for MIC P. aeruginosa 065: strain 065, elevated MIC to Polymyxin B; for MIC P. aeruginosa 066: strain 066, elevated MIC to Polymyxin B; for MIC P. aeruginosa 067: strain 067, elevated MIC to Polymyxin B
How it was run: as §2

[10] = tested on: K. pneumoniae strains with elevated MICs to Polymyxin B; assay: as above; assay type: cell-based, Klebsiella pneumoniae; details: Table 6D; for MIC K. pneumoniae 063: strain 063, elevated MIC to Polymyxin B; for MIC K. pneumoniae 064: strain 064, elevated MIC to Polymyxin B; for MIC K. pneumoniae 062: strain 062, elevated MIC to Polymyxin B; for MIC K. pneumoniae 655: strain 655, elevated MIC to Polymyxin B
How it was run: as §2

[11] = tested on: A. baumanii strains with elevated MICs to Polymyxin B; assay: as above; assay type: cell-based, Acinetobacter baumannii; details: Table 6D; for MIC A. baumannii 053: strain 053, elevated MIC to Polymyxin B; for MIC A. baumannii 056: strain 056, elevated MIC to Polymyxin B; for MIC A. baumannii 068: strain 068, elevated MIC to Polymyxin B; for MIC A. baumannii 070: strain 070, elevated MIC to Polymyxin B
How it was run: as §2

[12] = absence of a second agent, Table 6B

Row | Substance | MIC, P. aeruginosa ATCC 27853 [4, 12] | MIC, P. aeruginosa CCUG 59347 [4, 12] | MIC, A. baumannii ATCC BAA-747 [5, 12] | MIC, A. baumannii NCTC 13424 [5, 12] | MIC, E. coli ATCC 25922 [6, 12] | MIC, E. coli NCTC 13441 [6, 12] | MIC, K. pneumoniae ATCC 4352 [7, 12] | MIC E. coli 058 [8] | MIC E. coli 059 [8] | MIC E. coli 060 [8] | MIC E. coli 061 [8] | MIC P. aeruginosa 066 [9] | MIC P. aeruginosa 067 [9] | MIC K. pneumoniae 063 [10] | MIC K. pneumoniae 064 [10] | MIC A. baumannii 053 [11] | MIC A. baumannii 056 [11] | MIC A. baumannii 068 [11] | MIC K. pneumoniae 062 [10] | MIC A. baumannii 070 [11] | also measured
1 | (cis-5-cyclohexyl- piperidine)-3-carbonyl polymyxin B nonapeptide [Example D10] | 1 micrograms/mL | 2 micrograms/mL | >8 micrograms/mL | 8 micrograms/mL | 4 micrograms/mL | 4 micrograms/mL | 8 micrograms/mL |  |  |  |  |  |  |  |  |  |  |  |  |  | MIC in combination with Rifampicin, K. pneumoniae ATCC 4352 [1]: 0.125 micrograms/mL; MIC in combination with Rifampicin, K. pneumoniae ATCC BAA-2146 [1]: 0.25 micrograms/mL; MIC in combination with Rifampicin, E. coli NCTC 13441 ([2]; E. coli NCTC 13441): 0.5 micrograms/mL; MIC in combination with Rifampicin, A. baumannii ATCC BAA-747 [3]: 0.5 micrograms/mL; MIC in combination with Rifampicin, A. baumannii NCTC 13424 [3]: ≤0.015 micrograms/mL; MIC, K. pneumoniae ATCC BAA-2146 [7, 12]: >8 micrograms/mL
2 | (5-Phenyl-piperidine)- 3-carbonyl polymyxin B nonapeptide [Example D8] | 0.5 micrograms/mL | 1 micrograms/mL | 0.25 micrograms/mL | 0.5 micrograms/mL | 0.125 micrograms/mL | 0.25 micrograms/mL | 0.125 micrograms/mL |  |  |  |  |  |  |  |  |  |  |  |  |  | MIC in combination with Rifampicin, K. pneumoniae ATCC 4352 [1]: 0.03 micrograms/mL; MIC in combination with Rifampicin, K. pneumoniae ATCC BAA-2146 [1]: 0.06 micrograms/mL; MIC in combination with Rifampicin, E. coli ATCC 25922 ([2]; E. coli ATCC 25922): ≤0.015 micrograms/mL; MIC in combination with Rifampicin, A. baumannii ATCC BAA-747 [3]: 0.03 micrograms/mL; MIC in combination with Rifampicin, A. baumannii NCTC 13424 [3]: ≤0.015 micrograms/mL; MIC, K. pneumoniae ATCC BAA-2146 [7, 12]: 0.5 micrograms/mL
3 | (S)-1-isobutyl piperazine-2- carbonyl-L-Thr- L-Dap-polymyxin B heptapeptide [Example D69] |  |  |  |  |  |  |  | 8 micrograms/mL | 16 micrograms/mL | 8 micrograms/mL | 32 micrograms/mL | 32 micrograms/mL | >256 micrograms/mL | 128 micrograms/mL | 32 micrograms/mL | >256 micrograms/mL | 256 micrograms/mL | 32 micrograms/mL |  |  | MIC, P. aeruginosa ATCC 27853 ([4]; sole activity, Table 6C): 0.5 micrograms/mL; MIC, P. aeruginosa CCUG 59347 ([4]; sole activity, Table 6C): 0.5 micrograms/mL; MIC, A. baumannii ATCC BAA-747 ([5]; sole activity, Table 6C): 0.25 micrograms/mL; MIC, A. baumannii NCTC 13424 ([5]; sole activity, Table 6C): 0.5 micrograms/mL; MIC P. aeruginosa 065 [9]: 16 micrograms/mL; MIC, E. coli ATCC 25922 ([6]; sole activity, Table 6C): 0.25 micrograms/mL; MIC, E. coli NCTC 13441 ([6]; sole activity, Table 6C): 0.125 micrograms/mL; MIC, K. pneumoniae ATCC 4352 ([7]; sole activity, Table 6C): 0.125 micrograms/mL
4 | 3-aminomethyl- undecanoyl polymyxin B nonapeptide [Example D32] | 0.5 micrograms/mL | 1 micrograms/mL | 2 micrograms/mL | 1 micrograms/mL | 1 micrograms/mL | 1 micrograms/mL | 1 micrograms/mL |  | 1 micrograms/mL | 2 micrograms/mL | 8 micrograms/mL | 4 micrograms/mL | 32 micrograms/mL | 32 micrograms/mL | 2 micrograms/mL | 32 micrograms/mL | 8 micrograms/mL | 4 micrograms/mL | 8 micrograms/mL | 8 micrograms/mL | MIC K. pneumoniae 655 [10]: 32 micrograms/mL
5 | 3-aminomethyl- undecanoyl polymyxin B nonapeptide [Example D33] | 0.5 micrograms/mL | 1 micrograms/mL | 1 micrograms/mL | 2 micrograms/mL | 1 micrograms/mL | 2 micrograms/mL | 2 micrograms/mL |  | 2 micrograms/mL | 2 micrograms/mL | 8 micrograms/mL | 4 micrograms/mL | 32 micrograms/mL | 16 micrograms/mL | 2 micrograms/mL | 32 micrograms/mL | 16 micrograms/mL | 4 micrograms/mL | 2 micrograms/mL | 4 micrograms/mL | MIC K. pneumoniae 655 [10]: 32 micrograms/mL
6 | 5-(3- methylbutanamido) piperidine-3- carbonyl Polymyxin B nonapeptide [Example D64] |  |  |  |  |  |  |  | 64 micrograms/mL | 128 micrograms/mL | 64 micrograms/mL | 64 micrograms/mL | 64 micrograms/mL | >256 micrograms/mL | >256 micrograms/mL | 128 micrograms/mL | >256 micrograms/mL | 256 micrograms/mL | 128 micrograms/mL | >256 micrograms/mL | >256 micrograms/mL | MIC, P. aeruginosa ATCC 27853 ([4]; sole activity, Table 6C): 1 micrograms/mL; MIC, P. aeruginosa CCUG 59347 ([4]; sole activity, Table 6C): 1 micrograms/mL; MIC, A. baumannii ATCC BAA-747 ([5]; sole activity, Table 6C): 2 micrograms/mL; MIC, A. baumannii NCTC 13424 ([5]; sole activity, Table 6C): 2 micrograms/mL; MIC P. aeruginosa 065 [9]: 64 micrograms/mL; MIC, E. coli ATCC 25922 ([6]; sole activity, Table 6C): 0.25 micrograms/mL; MIC, E. coli NCTC 13441 ([6]; sole activity, Table 6C): 0.25 micrograms/mL; MIC, K. pneumoniae ATCC 4352 ([7]; sole activity, Table 6C): 0.25 micrograms/mL; MIC, K. pneumoniae ATCC BAA-2146 ([7]; sole activity, Table 6C): 0.25 micrograms/mL
7 | 1-(2- trifluoromethylben- zyl)piperazine- 2-carbonyl L-Thr- L-Dap-polymyxin B heptapeptide [Example D71] |  |  |  |  |  |  |  | 1 micrograms/mL | 8 micrograms/mL | 4 micrograms/mL | 8 micrograms/mL | 1 micrograms/mL | 16 micrograms/mL | 16 micrograms/mL | 4 micrograms/mL | 64 micrograms/mL | 16 micrograms/mL | 4 micrograms/mL | 32 micrograms/mL | 8 micrograms/mL | MIC, P. aeruginosa ATCC 27853 ([4]; sole activity, Table 6C): 0.5 micrograms/mL; MIC, P. aeruginosa CCUG 59347 ([4]; sole activity, Table 6C): 1 micrograms/mL; MIC, A. baumannii ATCC BAA-747 ([5]; sole activity, Table 6C): 0.5 micrograms/mL; MIC, A. baumannii NCTC 13424 ([5]; sole activity, Table 6C): 0.25 micrograms/mL; MIC P. aeruginosa 065 [9]: 0.5 micrograms/mL; MIC, E. coli ATCC 25922 ([6]; sole activity, Table 6C): 0.25 micrograms/mL; MIC, E. coli NCTC 13441 ([6]; sole activity, Table 6C): 0.25 micrograms/mL; MIC K. pneumoniae 655 [10]: 32 micrograms/mL; MIC, K. pneumoniae ATCC 4352 ([7]; sole activity, Table 6C): 0.25 micrograms/mL; MIC, K. pneumoniae ATCC BAA-2146 ([7]; sole activity, Table 6C): 0.5 micrograms/mL
